According to paper PMC10787407, “Regulation of polysaccharide in Wu‐tou decoction on intestinal microflora and pharmacokinetics of small molecular compounds in AIA rats” (Chinese Medicine, 2024):
Where two headings read alike, the source gives them in different places.

Key:
in vivo = details: Sprague-Dawley, rat, po, 39.2 g/kg/day; for Cmax: C max; for Tmax: T max
[1] = PK study of SM components in plasma of AIA rats by UPLC-MS/MS (MG vs MPS group); details: for Absorption under the intervention of PS: MPS vs MG group
[2] = rat, in vivo
[3] = MG group: AIA rats, saline 21 days, then oral SM 39.2 g crude drug/kg, plasma, mean ± SEM
[4] = MPS group: AIA rats, oral PS 9.8 g crude drug/kg/day 21 days, then oral SM 39.2 g crude drug/kg, plasma, mean ± SEM
[5] = t 1/2, MG group: AIA rats, saline 21 days, then oral SM 39.2 g crude drug/kg, plasma, mean ± SEM
[6] = t 1/2, MPS group: AIA rats, oral PS 9.8 g crude drug/kg/day 21 days, then oral SM 39.2 g crude drug/kg, plasma, mean ± SEM
[7] = MPS group compared with the MG group, AIA rats
[8] = Sprague-Dawley, po, 39.2 g/kg/day

## C[C@@]12C[C@@]3(O)O[C@@H](O1)[C@]1(COC(=O)c4ccccc4)[C@H]3C[C@@]12O[C@@H]1O[C@H](COC(=O)c2ccccc2)[C@@H](O)[C@H](O)[C@H]1O [Benzoylpaeoniflorin]
In vivo; [3]
  AUC 0-t: 27.9 ± 5.4 ng·h/mL
  AUC(0-inf): 30.6 ± 6.08 ng·h/mL
  Cmax: 14.8 ± 2.66 ng/mL
  Tmax: 0.139 ± 0.079 h
In vivo; [4]
  AUC 0-t: 31.6 ± 6.74 ng·h/mL
  AUC(0-inf): 37.9 ± 9.82 ng·h/mL
  Cmax: 24.3 ± 4 ng/mL
  Tmax: 0.083 ± 0.001 h
In vivo; [5]
  half-life: 3.59 ± 0.489 h
In vivo; [6]
  half-life: 6.96 ± 2.27 h
[1]; [7]
  Change of C max after oral PS: significantly increased
[1]; AIA rats
  Absorption under the intervention of PS: increased

## COc1ccc(-c2coc3cc(O)ccc3c2=O)cc1O [Calycosin]
In vivo; [3]
  AUC 0-t: 12.3 ± 1.06 ng·h/mL
  AUC(0-inf): 14.3 ± 1.19 ng·h/mL
  Cmax: 8.48 ± 2.43 ng/mL
  Tmax: 0.083 ± 0.001 h
In vivo; [4]
  AUC 0-t: 12.4 ± 0.972 ng·h/mL
  AUC(0-inf): 13.6 ± 0.642 ng·h/mL
  Cmax: 6.61 ± 1.44 ng/mL
  Tmax: 0.083 ± 0.001 h
In vivo; [5]
  half-life: 4.94 ± 0.315 h
In vivo; [6]
  half-life: 3.53 ± 0.666 h

## CN[C@@H](C)[C@H](O)c1ccccc1 [Ephedrine]
In vivo; [3]
  AUC 0-t: 1720 ± 96.8 ng·h/mL
  AUC(0-inf): 1750 ± 93.6 ng·h/mL
  Cmax: 674 ± 137 ng/mL
In vivo; [4]
  AUC(0-inf): 1580 ± 228 ng·h/mL
  Cmax: 662 ± 149 ng/mL
  Tmax: 0.333 ± 0.118 h
In vivo; [5]
  half-life: 1.85 ± 0.273 h
In vivo; [6]
  half-life: 1.74 ± 0.108 h
[1]; [3]
  T max: 0.250 ± 0.001 h
[1]; [4]
  AUC 0-t: 1559.029 ± 227.025 ng·h/mL

## O=C(/C=C/c1ccc(O[C@@H]2O[C@H](CO)[C@@H](O)[C@H](O)[C@H]2O)cc1)c1ccc(O)cc1O [Isoliquiritin]
In vivo; [3]
  AUC 0-t: 23.3 ± 0.956 ng·h/mL
  AUC(0-inf): 30.8 ± 2.93 ng·h/mL
  Cmax: 13.6 ± 1.06 ng/mL
  Tmax: 0.194 ± 0.079 h
In vivo; [4]
  AUC 0-t: 21.9 ± 1.76 ng·h/mL
  AUC(0-inf): 33.1 ± 3.19 ng·h/mL
  Cmax: 14.2 ± 1.55 ng/mL
  Tmax: 0.111 ± 0.062 h
In vivo; [5]
  half-life: 5.85 ± 2.02 h
In vivo; [6]
  half-life: 7.61 ± 1.85 h

## O=C1C[C@@H](c2ccc(O[C@@H]3O[C@H](CO)[C@@H](O)[C@H](O)[C@H]3O)cc2)Oc2cc(O)ccc21 [Liquiritin]
In vivo; [3]
  AUC 0-t: 300 ± 52.8 ng·h/mL
  AUC(0-inf): 307 ± 53.9 ng·h/mL
  Cmax: 126 ± 18.5 ng/mL
  Tmax: 0.167 ± 0.083 h
In vivo; [4]
  Tmax: 0.083 ± 0.001 h
In vivo; [5]
  half-life: 2.09 ± 0.132 h
In vivo; [6]
  half-life: 3.3 ± 0.429 h
[1]; [7]
  Change of C max after oral PS: significantly increased
[1]; [4]
  AUC 0-t: 321.663 ± 49.723 ng·h/mL
  AUC 0-∞: 339.781 ± 52.584 ng·h/mL
  C max: 190.023 ± 19.153 ng/mL
[1]; AIA rats
  Absorption under the intervention of PS: increased

## C[C@@]12C[C@@]3(O)O[C@@H](O1)[C@]1(COC(=O)c4ccccc4)[C@H]3C[C@@]12O[C@@H]1O[C@H](CO)[C@@H](O)[C@H](O)[C@H]1O [Paeoniflorin]
In vivo; [3]
  AUC 0-t: 2540 ± 95.9 ng·h/mL
  AUC(0-inf): 2460 ± 223 ng·h/mL
  Cmax: 1920 ± 225 ng/mL
  Tmax: 0.438 ± 0.108 h
In vivo; [4]
  AUC 0-t: 2870 ± 71.7 ng·h/mL
  AUC(0-inf): 2900 ± 68.7 ng·h/mL
  Cmax: 2060 ± 352 ng/mL
  Tmax: 0.396 ± 0.18 h
In vivo; [5]
  half-life: 2.13 ± 0.102 h
In vivo; [6]
  half-life: 1.99 ± 0.126 h
[1]; [7]
  Change of AUC 0-t after oral PS: increased
  Change of AUC 0-∞ after oral PS: increased
[1]; AIA rats
  Absorption under the intervention of PS: increased

## C=C1[C@H]2C[C@@]3([C@@H]1O)[C@@H](CC2=O)[C@]12[C@@H]4C[C@H]3[C@H]1N(CC)C[C@]4(C)CC[C@@H]2O [Songorine]
[2]; [8]
  AUC 0-t: 80.730 ± 5.544 ng·h/mL
  AUC 0-∞: 84.255 ± 5.364 ng·h/mL
  C max: 17.665 ± 1.910 ng/mL
  T max: 0.917 ± 0.773 h
  t 1/2: 2.522 ± 0.269 h
[2]
  Absorption under the intervention of PS: increased
[2]; po
  Change of AUC 0-t after oral PS: increased
  Change of AUC 0-∞ after oral PS: increased
In vivo
  AUC 0-t: 60.2 ± 6.5 ng·h/mL
  AUC(0-inf): 64.6 ± 6.04 ng·h/mL
  Cmax: 14 ± 2.32 ng/mL
  Tmax: 0.667 ± 0.236 h
In vivo; t 1/2
  half-life: 2.64 ± 0.461 h
